The values that follow come from patent US7534894B2, “Biphenyloxy-acids” (Wyeth, priority 2003, dated 2009).

Each structure is given as a SMILES string.

Assay [1] addresses T1, recombinant human plasminogen activator inhibitor-1 (PAI-1) (Homo sapiens, UniProt P05121).
T1 construct: purchased Molecular Innovations, Royal Oak, Mich
The assay is described as follows: Kinetic IC50: modification of the Primary Screen for the PAI-1 Inhibition. It is filed as biochemical. On the procedure: (§1) Test compounds are dissolved in DMSO at a final concentration of 10 mM, then diluted 101× in physiologic buffer. The inhibitory assay is initiated by the addition of the test compound (1-100 μM final concentration, maximum DMSO concentration of 0.2%) in a pH 6.6 buffer containing 140 nM recombinant human plasminogen activator inhibitor-1 (PAI-1; Molecular Innovations, Royal Oak, Mich.). Following a 1 hour incubation at room temperature, 70 nM of recombinant human tissue plasminogen activator (tPA) is added, and the combination of the test compound, PAI-1 and tPA is incubated for an additional 30 minutes. Following the second incubation, Spectrozyme-tPA (American Diagnostica, Greenwich, Conn.), a chromogenic substrate for tPA, is added and absorbance read at 405 nm at 0 and 60 minutes. Relative PAI-1 inhibition is equal to the residual tPA activity in the presence of the test compound and PAI-1. Control treatments include the complete inhibition of tPA by PAI-1 at the molar ratio employed (2:1), and the absence of any effect of the test compound on tPA alone.

In assay [2] the target is T1, recombinant human plasminogen activator inhibitor-1 (PAI-1). The assay can be described thus: Primary Screen for the PAI-1 Inhibition (residual tPA activity, chromogenic substrate Spectrozyme-tPA). It is filed as biochemical. The note with it: 140 nM PAI-1, 70 nM tPA, pH 6.6. On the procedure:
as §1

T1 sequence (P05121 24-402): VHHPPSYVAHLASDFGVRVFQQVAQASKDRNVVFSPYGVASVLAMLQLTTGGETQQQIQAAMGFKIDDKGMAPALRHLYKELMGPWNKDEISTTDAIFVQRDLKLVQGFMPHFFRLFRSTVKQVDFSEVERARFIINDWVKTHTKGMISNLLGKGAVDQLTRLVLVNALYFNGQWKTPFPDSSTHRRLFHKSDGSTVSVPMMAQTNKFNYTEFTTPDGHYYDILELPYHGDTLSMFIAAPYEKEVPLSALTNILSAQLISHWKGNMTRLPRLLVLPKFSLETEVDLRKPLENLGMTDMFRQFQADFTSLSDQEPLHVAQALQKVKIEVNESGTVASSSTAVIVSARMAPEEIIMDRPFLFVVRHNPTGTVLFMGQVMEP

For the molecule `O=C(O)C(Cc1ccccc1)Oc1cccc(-c2ccc(NC(=O)C3(c4cccc(F)c4)CCCC3)cc2)c1` (stereo not drawn) [Compound 30, 2-{[4′-({[1-(3-fluorophenyl)cyclopentyl]carbonyl}amino)-1,1′-biphenyl-3-yl]oxy}-3-phenylpropanoic acid], in assay [1], the IC50 came out at 17.4 µM. Besides, the inhibition at 25 µM in assay [2] (25 μM test compound) was found to be 23%. Further, in assay [2] (100 μM test compound), the inhibition at 100 µM amounted to 73%.

With `O=C(O)C(Cc1ccccc1)Oc1cccc(-c2ccc(NC(=O)C3(c4ccc(Cl)cc4)CC3)cc2)c1` (stereo not drawn) [Compound 29, 2-{[4′-({[1-(4-chlorophenyl)cyclopropyl]carbonyl}amino)-1,1′-biphenyl-3-yl]oxy}-3-phenylpropanoic acid], the IC50 in assay [1] is 31.2 µM. For the same molecule, the inhibition at 25 µM in assay [2] (25 μM test compound) is 31%. Besides, the inhibition at 100 µM in assay [2] (100 μM test compound) came to 83%.

Consider `Cn1cc(C(=O)N(Cc2ccccc2)Cc2ccc(-c3ccc(OCc4nnn[nH]4)c(Br)c3)cc2)c2ccccc21` [Compound 12, N-benzyl-N-{[3′-bromo-4′-(1H-tetraazol-5-ylmethoxy)-1,1′-biphenyl-4-yl]methyl}-1-methyl-1H-indole-3-carboxamide], for which, in assay [2] (25 μM test compound), the inhibition at 25 µM was 55%.

Consider `CCCCc1oc2ccccc2c1C(=O)Nc1ccc(-c2ccc(OC(Cc3ccccc3)C(=O)O)cc2)cc1` (stereo not drawn) [Compound 49, 2-[(4′-{[(2-butyl-1-benzofuran-3-yl)carbonyl]amino}-1,1′-biphenyl-4-yl)oxy]-3-phenylpropanoic acid], for which the IC50 in assay [1] amounted to 8.71 µM. Moreover, the inhibition at 25 µM in assay [2] (25 μM test compound) came to 25%. Moreover, the inhibition at 100 µM in assay [2] (100 μM test compound) was 90%.

In the case of `O=C(O)C(Cc1ccccc1)Oc1ccc(-c2ccc(NC(=O)C3(c4ccc(Cl)cc4)CC3)cc2)cc1` (stereo not drawn) [Compound 33, 2-{[4′-({[1-(4-chlorophenyl)cyclopropyl]carbonyl}amino)-1,1′-biphenyl-4-yl]oxy}-3-phenylpropanoic acid], the 50% inhibitory concentration (IC50) in assay [1] came to 13.9 µM. Further, in assay [2] (25 μM test compound), the inhibition at 25 µM came to 22%. For the same molecule, in assay [2] (100 μM test compound), the inhibition at 100 µM came to 79%.

As for `O=C(Nc1ccc(-c2ccc(OC(Cc3ccccc3)C(=O)O)cc2)cc1)c1ccc2ccccc2c1` (stereo not drawn) [Compound 55, 2-{[4′-(2-naphthoylamino)-1,1′-biphenyl-4-yl]oxy}-3-phenylpropanoic acid], the inhibition at 25 µM in assay [2] (25 μM test compound) stood at 26%. For the same molecule, in assay [2] (100 μM test compound), the inhibition at 100 µM was 53%.

For the molecule `O=C(Nc1ccc(-c2ccc(OC(Cc3ccccc3)C(=O)O)cc2)cc1)c1ccc(-c2ccc(Cl)cc2)o1` (stereo not drawn) [Compound 21, 2-[(4′-{[5-(4-chlorophenyl)-2-furoyl]amino}-1,1′-biphenyl-4-yl)oxy]-3-phenylpropanoic acid], the inhibition at 25 µM in assay [2] (25 μM test compound) is 28%. Moreover, the inhibition at 100 µM in assay [2] (100 μM test compound) turned out to be 52%.

With `O=C(O)C(Cc1ccccc1)Oc1cccc(-c2ccc(NC(=O)C3(c4ccccc4)CC3)cc2)c1` (stereo not drawn) [Compound 53, 3-phenyl-2-[(4′-{[(1-phenylcyclopropyl)carbonyl]amino}-1,1′-biphenyl-3-yl)oxy]propanoic acid], in assay [2] (25 μM test compound), the inhibition at 25 µM came to 19%. In addition, the inhibition at 100 µM in assay [2] (100 μM test compound) is 52%.

`O=C(O)C(Cc1ccccc1)Oc1cccc(-c2ccc(NC(=O)C3(c4ccccc4)CCCC3)cc2)c1` (stereo not drawn) [Compound 25, 3-phenyl-2-[(4′-{[(1-phenylcyclopentyl)carbonyl]amino}-1,1′-biphenyl-3-yl)oxy]propanoic acid]: in assay [1], the IC50 worked out at 40.8 µM. The inhibition at 25 µM in assay [2] (25 μM test compound) came to 26%. The inhibition at 100 µM in assay [2] (100 μM test compound) worked out at 74%.

On to `O=C(Nc1ccc(-c2ccc(OC(Cc3ccccc3)C(=O)O)cc2)cc1)c1ccc(Oc2ccccc2)cc1` (stereo not drawn) [Compound 45, 2-({4′-[(4-phenoxybenzoyl)amino]-1,1′-biphenyl-4-yl}oxy)-3-phenylpropanoic acid], for which, in assay [1], the IC50 came to 11.5 µM. Further, in assay [2] (25 μM test compound), the inhibition at 25 µM turned out to be 34%. Further, the inhibition at 100 µM in assay [2] (100 μM test compound) was 61%.

In the case of `Cc1nn(Cc2ccc(C(=O)Nc3ccc(-c4cccc(OC(Cc5ccccc5)C(=O)O)c4)cc3)o2)c(C)c1Br` (stereo not drawn) [Compound 44, 2-{[4′-({5-[(4-bromo-3,5-dimethyl-1H-pyrazol-1-yl)methyl]-2-furoyl}amino)-1,1′-biphenyl-3-yl]oxy}-3-phenylpropanoic acid], the IC50 in assay [1] stood at 11.8 µM. Besides, the inhibition at 25 µM in assay [2] (25 μM test compound) is 17%. The inhibition at 100 µM in assay [2] (100 μM test compound) came to 52%.

Turning to `O=C(O)C(Cc1ccccc1)Oc1ccc(-c2ccc(NC(=O)C3(c4ccc(Cl)cc4)CCC3)cc2)cc1` (stereo not drawn) [Compound 47, 2-{[4′-({[1-(4-chlorophenyl)cyclobutyl]carbonyl}amino)-1,1′-biphenyl-4-yl]oxy}-3-phenylpropanoic acid], the IC50 in assay [1] came out at 18.1 µM. Also, the inhibition at 25 µM in assay [2] (25 μM test compound) was 14%. The inhibition at 100 µM in assay [2] (100 μM test compound) was 83%.

Take `CCCCc1oc2ccccc2c1C(=O)Nc1ccc(-c2cccc(OC(Cc3ccccc3)C(=O)O)c2)cc1` (stereo not drawn) [Compound 41, 2-[(4′-{[(2-butyl-1-benzofuran-3-yl)carbonyl]amino}-1,1′-biphenyl-3-yl)oxy]-3-phenylpropanoic acid]: the IC50 in assay [1] worked out at 9.1 µM. Besides, the inhibition at 25 µM in assay [2] (25 μM test compound) turned out to be 30%. The inhibition at 100 µM in assay [2] (100 μM test compound) was 95%.

For `O=C(O)C(Cc1ccccc1)Oc1cccc(-c2ccc(NC(=O)C3(c4ccc(Cl)cc4)CCC3)cc2)c1` (stereo not drawn) [Compound 39, 2-{[4′-({[1-(4-chlorophenyl)cyclobutyl]carbonyl}amino)-1,1′-biphenyl-3-yl]oxy}-3-phenylpropanoic acid], the IC50 in assay [1] came to 12 µM. Moreover, in assay [2] (25 μM test compound), the inhibition at 25 µM was 40%. For the same molecule, in assay [2] (100 μM test compound), the inhibition at 100 µM is 81%.

For `O=C(Nc1ccc(-c2ccc(OC(Cc3ccccc3)C(=O)O)cc2)cc1)c1sc2ccccc2c1Cl` (stereo not drawn) [Compound 57, 2-[(4′-{[(3-chloro-1-benzothien-2-yl)carbonyl]amino}-1,1′-biphenyl-4-yl)oxy]-3-phenylpropanoic acid], in assay [2] (25 μM test compound), the inhibition at 25 µM stood at 34%. The inhibition at 100 µM in assay [2] (100 μM test compound) worked out at 58%.

For the molecule `CCCCc1oc2ccccc2c1C(=O)N(Cc1ccccc1)Cc1ccc(-c2ccc(OCc3nnn[nH]3)c(Br)c2)cc1` [Compound 11, N-benzyl-N-{[3′-bromo-4′-(1H-tetraazol-5-ylmethoxy)-1,1′-biphenyl-4-yl]methyl}-2-butyl-1-benzofuran-3-carboxamide], the inhibition at 25 µM in assay [2] (25 μM test compound) is 53%.

Consider `O=C(O)COc1ccc(-c2ccc(NC(=O)C3(c4cccc(F)c4)CCCC3)cc2)cc1` [Compound 23, {[4′-({[1-(3-fluorophenyl)cyclopentyl]carbonyl}amino)-1,1′-biphenyl-4-yl]oxy}acetic acid], for which the inhibition at 25 µM in assay [2] (25 μM test compound) was 3%. Further, the inhibition at 100 µM in assay [2] (100 μM test compound) stood at 77%.

Turning to `O=C(O)COc1ccc(-c2ccc(NC(=O)C3(c4ccc(Cl)cc4)CCCC3)cc2)cc1` [Compound 22, {[4′-({[1-(4-chlorophenyl)cyclopentyl]carbonyl}amino)-1,1′-biphenyl-4-yl]oxy}acetic acid], the inhibition at 25 µM in assay [2] (25 μM test compound) is 30%. In addition, in assay [2] (100 μM test compound), the inhibition at 100 µM amounted to 89%.

With `CCCc1c(C(=O)NCc2ccc(-c3ccc(OCc4nnn[nH]4)c(Br)c3)cc2)cnn1-c1ccccc1` [Compound 5, N-{[3′-bromo-4′-(H-tetraazol-5-ylmethoxy)[1,1′-biphenyl]-4-yl]methyl}-1-phenyl-5-propyl-1H-pyrazole-4-carboxamide], the “% Inhibition 25 μM” value in assay [2] (25 μM test compound) is given as 23%. The “% Inhibition 100 μM” value in assay [2] (100 μM test compound) was 73%.

On to `O=C(O)COc1ccc(-c2ccc(CNC(=O)c3cnn(-c4ccccc4)c3C(F)(F)F)cc2)cc1` [Compound 1, ({4′-[({[1-phenyl-5-(trifluoromethyl)-1H-pyrazol-4-yl]carbonyl}amino)methyl][1,1′-biphenyl]-4-yl}oxy)acetic acid], for which the inhibition at 25 µM in assay [2] (25 μM test compound) worked out at 1%. The inhibition at 100 µM in assay [2] (100 μM test compound) is 60%.

Consider `O=C(O)C(Cc1ccccc1)Oc1ccc(-c2ccc(NC(=O)C3(c4ccc(Cl)cc4)CCCC3)cc2)cc1` (stereo not drawn) [Compound 52, 2-{[4′-({[1-(4-chlorophenyl)cyclopentyl]carbonyl}amino)-1,1′-biphenyl-4-yl]oxy}-3-phenylpropanoic acid], for which the inhibition at 25 µM in assay [2] (25 μM test compound) stood at 55%. In addition, the inhibition at 100 µM in assay [2] (100 μM test compound) was determined as 53%.

Consider `O=C(O)C(Cc1ccccc1)Oc1cccc(-c2ccc(NC(=O)C3(c4ccc(Cl)cc4)CCCCC3)cc2)c1` (stereo not drawn) [Compound 51, 2-{[4′-({[1-(4-chlorophenyl)cyclohexyl]carbonyl}amino)-1,1′-biphenyl-3-yl]oxy}-3-phenylpropanoic acid], for which the inhibition at 25 µM in assay [2] (25 μM test compound) came out at 46%. Besides, in assay [2] (100 μM test compound), the inhibition at 100 µM came out at 60%.

Regarding `Cc1cc(C)c2c(c1C(=O)Nc1ccc(-c3cccc(OC(Cc4ccccc4)C(=O)O)c3)cc1)CC(C)(C)C2=O` (stereo not drawn) [Compound 54, 3-phenyl-2-[(4′-{[(2,2,5,7-tetramethyl-1-oxo-2,3-dihydro-1H-inden-4-yl)carbonyl]amino}-1,1′-biphenyl-3-yl)oxy]propanoic acid], in assay [2] (25 μM test compound), the inhibition at 25 µM came to 29%. Also, in assay [2] (100 μM test compound), the inhibition at 100 µM worked out at 85%.

For the molecule `CCCc1ccc(-c2ccc(C(=O)Nc3ccc(-c4ccc(OC(Cc5ccccc5)C(=O)O)cc4)cc3)cc2)cc1` (stereo not drawn) [Compound 20, 3-phenyl-2-[(4′-{[(4′-propyl-1,1′-biphenyl-4-yl)carbonyl]amino}-1,1′-biphenyl-4-yl)oxy]propanoic acid], in assay [2] (25 μM test compound), the inhibition at 25 µM came to 40%. In addition, the inhibition at 100 µM in assay [2] (100 μM test compound) came out at 66%.

As for `CCCCOc1ccc2cc(C(=O)Nc3ccc(-c4ccc(OC(Cc5ccccc5)C(=O)O)cc4)cc3)ccc2c1` (stereo not drawn) [Compound 56, 2-({4′-[(6-butoxy-2-naphthoyl)amino]-1,1′-biphenyl-4-yl}oxy)-3-phenylpropanoic acid], the inhibition at 100 µM in assay [2] (100 μM test compound) worked out at 53%.

As a reminder, the IC50 is the concentration that gives 50% inhibition. Usually inhibition stands for the drop in the measured response relative to a control, in per cent.
